Assay results published in patent publication US20200323962A1, “LIPOPHILIC PEPTIDE PRODRUGS” (YISSUM RESEARCH DEVELOPMENT COMPANY OF THE HEBREW …, priority 2017, published 2020).
Where two headings read alike, the source gives them in different places. Marks after values point to notes of the source that are not given here. Each block holds one molecule with its values, some of them ahead of it. *1 amine or outer side, *2 acyl side, *3 side chain or, on linkers, in order; H or OH if unused. Bridges are numbered along the chain shown (N, C = ends). Where no end group is shown, it is not given here. [ ]: non-standard residue; d: D form. Phe(Nα-(CH2)3CO) = O=C([C@H](Cc1ccccc1)N(CCCC(=O)[*:3])[*:1])[*:2]; N(2-aminoethyl)Phe = O=C([C@H](Cc1ccccc1)N(CCN[*:3])[*:1])[*:2]

Tests used:
[1] = PAMPA, pH 7.4
human αvβ6-Integrin = target: T1, human αvβ6-Integrin (Homo sapiens, UniProt P06756+P18564, DEL708-788); test: Integrin binding assay (solid-phase), αvβ6
T1 construct: purchased R&D

human αvβ5-integrin = target: T2, human αvβ5-integrin (Homo sapiens, UniProt P06756+P18084); test: Integrin binding assay (solid-phase), αvβ5
T2 construct: purchased Millipore

human α5β1-integrin = human α5β1-integrin (Homo sapiens, UniProt P05556+P08648, DEL729-798); test: biochemical
Caco-2 cells [2] = test: Caco-2 permeability study (Examples 1-4); conditions: for Caco-2 permeability: qualitative; for Papp AB / Papp BA: Table 3, n = 3
in vitro = conditions: human, Caco-2, Papp AB
PAMPA-GIT permeability = conditions: pH 7.4, 4 hours
Caco-2 cells [3] = test: Caco-2 A-B and B-A permeability with/without verapamil (Example 6); conditions: 10 μM, 90 min, no verapamil
[4] = as above; conditions: human, Caco-2, pH 7.4
[5] = Log D determination (octanol/PBS pH 7.4); conditions: pH 7.4, octanol/PBS
[6] = Caco-2 permeability study (Examples 1-4)
[7] = system: amylase and lipase release from the pancreas; conditions: bombesin- and caerulein-induced; cited from earlier work
somatostatin receptors = conditions: SSTR subtypes; cited from earlier work

T1 sequence (P06756 31-992 limits assumed, stated change not applied): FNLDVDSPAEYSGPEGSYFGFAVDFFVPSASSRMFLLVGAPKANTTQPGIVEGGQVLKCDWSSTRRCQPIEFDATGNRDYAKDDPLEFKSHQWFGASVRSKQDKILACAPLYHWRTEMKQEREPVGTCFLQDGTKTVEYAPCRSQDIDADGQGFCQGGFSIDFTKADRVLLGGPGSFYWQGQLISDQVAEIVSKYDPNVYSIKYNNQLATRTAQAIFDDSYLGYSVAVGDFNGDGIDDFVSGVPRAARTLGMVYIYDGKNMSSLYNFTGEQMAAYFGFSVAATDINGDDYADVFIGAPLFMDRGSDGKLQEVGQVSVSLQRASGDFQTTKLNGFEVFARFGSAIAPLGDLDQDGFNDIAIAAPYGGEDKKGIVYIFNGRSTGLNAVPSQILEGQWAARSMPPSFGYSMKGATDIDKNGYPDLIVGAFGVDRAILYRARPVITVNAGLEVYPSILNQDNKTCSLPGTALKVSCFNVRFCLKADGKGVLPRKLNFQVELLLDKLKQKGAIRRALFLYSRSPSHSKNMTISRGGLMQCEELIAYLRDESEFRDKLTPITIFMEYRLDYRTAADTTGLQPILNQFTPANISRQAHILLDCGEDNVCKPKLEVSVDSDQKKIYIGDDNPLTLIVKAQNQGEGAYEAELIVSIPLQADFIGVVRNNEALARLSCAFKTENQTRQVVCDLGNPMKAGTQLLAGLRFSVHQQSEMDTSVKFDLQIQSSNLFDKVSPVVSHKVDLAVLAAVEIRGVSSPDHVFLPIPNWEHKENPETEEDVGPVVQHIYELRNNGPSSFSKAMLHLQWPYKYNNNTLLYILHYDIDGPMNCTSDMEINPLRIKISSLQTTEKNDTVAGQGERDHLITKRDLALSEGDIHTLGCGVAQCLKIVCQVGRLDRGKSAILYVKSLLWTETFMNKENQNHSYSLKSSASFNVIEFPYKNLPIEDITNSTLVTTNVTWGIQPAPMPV
T1 sequence (P18564 22-707 limits assumed, stated change not applied): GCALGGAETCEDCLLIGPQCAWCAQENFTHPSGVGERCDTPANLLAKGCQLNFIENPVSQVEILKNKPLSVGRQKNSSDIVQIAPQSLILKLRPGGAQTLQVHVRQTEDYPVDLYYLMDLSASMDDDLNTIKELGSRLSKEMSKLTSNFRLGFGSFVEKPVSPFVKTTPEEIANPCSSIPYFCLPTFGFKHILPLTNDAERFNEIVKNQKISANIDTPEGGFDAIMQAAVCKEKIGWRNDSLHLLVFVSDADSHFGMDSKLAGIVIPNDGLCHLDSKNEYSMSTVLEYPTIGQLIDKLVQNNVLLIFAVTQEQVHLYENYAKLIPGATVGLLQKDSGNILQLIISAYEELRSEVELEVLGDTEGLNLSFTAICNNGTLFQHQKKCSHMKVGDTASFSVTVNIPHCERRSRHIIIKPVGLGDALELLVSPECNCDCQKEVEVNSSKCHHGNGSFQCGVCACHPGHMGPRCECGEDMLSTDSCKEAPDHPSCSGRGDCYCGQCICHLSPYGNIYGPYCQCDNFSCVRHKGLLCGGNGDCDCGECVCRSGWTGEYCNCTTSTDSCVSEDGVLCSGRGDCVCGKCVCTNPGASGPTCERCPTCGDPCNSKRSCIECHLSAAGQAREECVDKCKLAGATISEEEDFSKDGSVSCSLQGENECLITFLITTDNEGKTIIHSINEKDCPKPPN
T2 sequence (P06756 31-889 limits assumed): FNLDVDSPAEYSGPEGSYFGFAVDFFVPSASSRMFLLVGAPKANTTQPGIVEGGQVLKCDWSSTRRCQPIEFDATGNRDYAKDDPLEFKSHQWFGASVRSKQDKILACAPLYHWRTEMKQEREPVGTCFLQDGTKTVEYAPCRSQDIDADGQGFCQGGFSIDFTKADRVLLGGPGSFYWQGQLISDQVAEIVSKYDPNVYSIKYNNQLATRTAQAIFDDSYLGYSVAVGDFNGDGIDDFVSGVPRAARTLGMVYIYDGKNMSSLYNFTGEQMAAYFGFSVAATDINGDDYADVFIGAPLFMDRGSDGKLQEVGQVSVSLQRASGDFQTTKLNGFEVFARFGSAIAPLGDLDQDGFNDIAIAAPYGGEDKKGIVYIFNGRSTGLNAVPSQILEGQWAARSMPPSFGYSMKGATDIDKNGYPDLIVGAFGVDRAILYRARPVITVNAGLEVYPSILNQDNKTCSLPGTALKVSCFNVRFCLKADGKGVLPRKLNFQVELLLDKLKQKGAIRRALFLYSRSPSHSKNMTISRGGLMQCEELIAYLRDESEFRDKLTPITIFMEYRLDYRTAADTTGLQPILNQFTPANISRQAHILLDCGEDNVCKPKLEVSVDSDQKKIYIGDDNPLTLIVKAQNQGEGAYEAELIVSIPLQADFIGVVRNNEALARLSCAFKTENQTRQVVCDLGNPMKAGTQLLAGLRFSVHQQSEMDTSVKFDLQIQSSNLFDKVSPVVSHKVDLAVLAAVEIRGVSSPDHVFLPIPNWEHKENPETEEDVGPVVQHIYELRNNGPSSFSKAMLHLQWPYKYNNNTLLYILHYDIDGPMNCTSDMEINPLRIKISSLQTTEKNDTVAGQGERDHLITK
T2 sequence (P06756 891-1048 partner limits assumed): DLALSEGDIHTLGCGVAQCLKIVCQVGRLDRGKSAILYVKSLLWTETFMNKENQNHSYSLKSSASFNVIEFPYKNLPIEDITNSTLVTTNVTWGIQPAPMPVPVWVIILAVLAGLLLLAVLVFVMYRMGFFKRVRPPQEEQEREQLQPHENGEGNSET
T2 sequence (P18084 24-799): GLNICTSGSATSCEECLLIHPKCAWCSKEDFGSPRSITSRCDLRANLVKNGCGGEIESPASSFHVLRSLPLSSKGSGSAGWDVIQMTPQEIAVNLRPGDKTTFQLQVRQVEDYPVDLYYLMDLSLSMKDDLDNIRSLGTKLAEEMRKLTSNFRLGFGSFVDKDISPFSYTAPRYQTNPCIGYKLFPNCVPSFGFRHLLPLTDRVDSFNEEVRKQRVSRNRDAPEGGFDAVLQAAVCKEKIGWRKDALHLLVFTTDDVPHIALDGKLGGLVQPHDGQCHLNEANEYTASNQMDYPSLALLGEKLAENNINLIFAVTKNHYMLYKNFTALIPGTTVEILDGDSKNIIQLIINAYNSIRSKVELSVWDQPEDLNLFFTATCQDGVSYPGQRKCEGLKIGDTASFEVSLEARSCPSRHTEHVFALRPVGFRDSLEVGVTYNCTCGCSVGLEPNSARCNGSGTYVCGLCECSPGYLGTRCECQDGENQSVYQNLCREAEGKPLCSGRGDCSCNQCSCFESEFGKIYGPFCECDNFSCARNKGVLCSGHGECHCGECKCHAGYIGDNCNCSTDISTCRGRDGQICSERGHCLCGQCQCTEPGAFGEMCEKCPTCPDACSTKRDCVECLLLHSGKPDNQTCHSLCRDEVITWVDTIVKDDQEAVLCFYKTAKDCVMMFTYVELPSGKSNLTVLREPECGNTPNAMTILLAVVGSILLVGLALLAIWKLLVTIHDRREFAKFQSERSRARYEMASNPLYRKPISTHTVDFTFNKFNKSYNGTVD

Mass retention ([1]; 4 h, 50 μM): 21% | Permeability, Mean [1]: <−7* Log10[10^−6 cm/s] | Permeability, replicate 1 [1]: <−7 Log10[10^−6 cm/s] | Permeability, replicate 2 [1]: <−7 Log10[10^−6 cm/s] | Permeability, replicate 3 [1]: <−7 Log10[10^−6 cm/s]
Molecule: CNC(=C[N+](=O)[O-])NCCSCc1ccc(CN(C)C)o1 [Ranitidine, reference compound]

Molecule: C[C@@H]1NC(=O)[C@H](C)N(C)C(=O)[C@H](C)NC(=O)[C@H](CC(=O)O)N(C)C(=O)CNC(=O)[C@@H](CCCNC(=N)N)NC1=O [compound 17, c(rG*DA*AA)]
IC50 (human αvβ6-Integrin): > 10 µM | IC50 (human αvβ5-integrin): > 5 µM | IC50 (human α5β1-integrin): > 10 µM | Caco-2 permeability (Caco-2 cells [2]): significant lower permeability

Molecule: C[C@@H]1NC(=O)[C@H](CC(=O)O)NC(=O)CNC(=O)[C@@H](CCCNC(=N)N)NC(=O)[C@H](C)N(C)C(=O)[C@H](C)N(C)C1=O [compound 23, c(rGDA*A*A)]
Papp AB (Caco-2 cells [2]): 0.61 ± 0.09 cm/s × 10^6 | Papp BA (Caco-2 cells [2]): 1.34 ± 0.03 cm/s × 10^6 | Caco-2 permeability (Caco-2 cells [2]): significant lower permeability

IC50 (human αvβ6-Integrin; Table 1, read-out: αvβ6, IC50): 0.025 ± 0.003 µM
Molecule: C[C@@H]1NC(=O)[C@H](CC(=O)O)NC(=O)CNC(=O)[C@@H](CCCNC(=N)N)N(C)C(=O)[C@H](Cc2ccccc2)NC(=O)[C@H](C)N(C)C1=O [compound 33, c(*rGDA*AF)]

Papp A→B at 150 min (in vitro): 1.89 ± 0.11 ×10⁻⁶ cm/s
Molecule: COCCc1ccc(OCC(O)CNC(C)C)cc1 (centres unmarked) [metoprolol]

Molecule: CC(C)[C@@H]1C(=O)N[C@@H](CCCNC(=N)N)C(=O)NCC(=O)N[C@@H](CC(=O)O)C(=O)N[C@@H](C)C(=O)N(C)[C@@H](C)C(=O)N1C [peptide 29, c(*vRGDA*A)]
efflux ratio (Caco-2 cells [2]; Table 3): 2.14 | Papp AB (Caco-2 cells [2]): 0.07 ± 0.01 cm/s × 10^6 | Papp BA (Caco-2 cells [2]): 0.15 ± 0.01 cm/s × 10^6 | Caco-2 permeability (Caco-2 cells [2]): significant lower permeability | Mass retention (PAMPA-GIT permeability): 15% | Permeability, Mean (PAMPA-GIT permeability): <−7 Log10[10^−6 cm/s] | Permeability, replicate 1 (PAMPA-GIT permeability): <−7 Log10[10^−6 cm/s] | Permeability, replicate 2 (PAMPA-GIT permeability): <−7 Log10[10^−6 cm/s] | Permeability, replicate 3 (PAMPA-GIT permeability): <−7 Log10[10^−6 cm/s] | Papp (AB), Mean (Caco-2 cells [3]): 0.7 10^−6 cm/s | Papp (AB), replicate 1 (Caco-2 cells [3]): 1.0 10^−6 cm/s | Papp (AB), replicate 2 (Caco-2 cells [3]): 0.2 10^−6 cm/s | Papp (AB), replicate 3 (Caco-2 cells [3]): 0.9 10^−6 cm/s | Papp (BA), Mean (Caco-2 cells [3]): 0.3 10^−6 cm/s | Papp (BA), replicate 1 (Caco-2 cells [3]): 0.3 10^−6 cm/s | Papp (BA), replicate 2 (Caco-2 cells [3]): 0.4 10^−6 cm/s | Papp (BA), replicate 3 (Caco-2 cells [3]): 0.2 10^−6 cm/s | efflux ratio at 90 min, 10 µM [4]: 0.4 | logD ([5]; pH 7.4, LogD, pH 7.4 (mean in parentheses below reported bound)): -2.84 | LogD, pH 7.4 (mean / reported value) [5]: <−1

efflux ratio ([6]; Caco-2): 13 | Papp A→B ([6]; Caco-2, Caco-2 Papp A-to-B, A-to-B, text values (FIGS. 4, 5, 7, 17-20), unit inferred): 0.8 ×10⁻⁶ cm/s | Papp B→A ([6]; Caco-2, Caco-2 Papp B-to-A, B-to-A, text values (FIGS. 5, 18, 20), unit inferred): 10.6 ×10⁻⁶ cm/s | Papp A→B ([6]; Caco-2, Papp AB, Table 3, n = 3): 0.82 ± 0.13 ×10⁻⁶ cm/s | Papp B→A ([6]; Caco-2, Papp BA, Table 3, n = 3): 10.7 ± 2.14 ×10⁻⁶ cm/s
Molecule: CCCCCCOC(=O)N=C(NCCC[C@@H]1NC(=O)[C@@H](C(C)C)N(C)C(=O)[C@H](C)N(C)C(=O)[C@H](C)NC(=O)[C@H](CC(=O)OC)NC(=O)CNC1=O)NC(=O)OCCCCCC [peptide 29P, c(*vR(Hoc)2GD(OMe)A*A)]

Molecule: PTR-3046: backbone cyclic somatostatin analog (SEQ ID NO: 28) ([N(2-aminoethyl)Phe]Y[dW]KV[Phe(Nα-(CH2)3CO)]T-NH2; bridge 1-6; also: backbone cyclisation between building units)
inhibition of amylase and lipase release [7]: inhibits bombesin- and caerulein-induced amylase and lipase release from the pancreas | somatostatin receptor selectivity (somatostatin receptors): selective toward the SSTR5
